Source: article PMC5948259, “A phase I study to assess the mass balance, excretion, and pharmacokinetics of [^14C]-ixazomib, an oral proteasome inhibitor, in patients with advanced solid tumors” (Investigational New Drugs, 2017)
Several values for one entry are separate records, joined by “and”; a condition that tells them apart may be missing. Equal entries are not always repeated. Where two headings read alike, the source gives them in different places.

Experiments:
[1] = design: method as in PMID 25011071; conditions: patients with MM; cited from earlier work
CYP2B6 = test system: CYP2B6; design: method as in earlier work; conditions: 10 μM, exceeding clinical concentrations; cited from earlier work
[2] = Mass balance: recovery of TRA in urine and feces by accelerator mass spectrometry; type: in vivo, human; conditions: for Total recovery (%) of TRA in urine and feces: days 1–35
Protocol: (§1) The primary objectives of the study were: (1) to assess the mass balance (i.e., cumulative excretion of TRA in urine and feces) of ixazomib following a single oral solution dose of 4.1 mg [^14C]-ixazomib containing approximately 500 nCi of TRA (specific activity of 125 nCi/mg); and (2) to characterize the PK of ixazomib in plasma and urine, and of TRA in plasma and whole blood, after a single oral solution dose of 4.1 mg [^14C]-ixazomib. The secondary objective was to assess the safety and tolerability of multiple-dose ixazomib administration in patients with advanced solid tumors or lymphoma.
(§2) This study was conducted in two parts: a 35-day PK cycle (Part A), followed by repeated 28-day treatment cycles (Part B; Fig. 1). In Part A of the study, patients who met the inclusion and exclusion criteria were admitted to the study clinic on the morning of day 1 for the initial confinement period (days 1–8). Patients received a single 10 mL oral solution dose of 4.1 mg [^14C]-ixazomib containing approximately 500 nCi of TRA, followed by 3 × 10 mL water rinses of the dosing cup. Patients then drank approximately 200 mL of water. Patients returned to the clinic on days 14, 21, 28, and 35 for a 24 h overnight clinic visit. Non-radiolabeled doses of ixazomib (4 mg capsule) were administered on days 14 and 21. After completing their day 35 assessments in Part A, patients were permitted to continue into Part B of the study, where they received non-radiolabeled ixazomib (4 mg capsules) once weekly on days 1, 8, and 15 of each 28-day treatment cycle until disease progression or unacceptable toxicity. All doses of ixazomib were administered on an empty stomach, at least 1 h before or at least 2 h after food.
(§3) Plasma and whole blood samples were collected at the following time points after ixazomib administration on day 1 of Part A: 0 (predose), 0.5, 1, 2, 3, 4, 8, 24, 48, 72, 96, 120, 144, 168, 312 (day 14), 480 (day 21), 648 (day 28), and 816 (day 35) h post dose. Complete urinary and fecal output was collected continuously during the initial confinement period of Part A (days 1–8). Patients were discharged from the clinic on day 8 and returned on days 14, 21, 28, and 35 for a 24 h overnight visit. Urinary and fecal output was collected during each of these 24 h overnight clinic visits. Patients were also instructed to collect all feces at home for the 24 h period before each overnight clinic visit (days 13, 20, 27, and 34).
To achieve enhanced analytical sensitivity, accelerator mass spectrometry (AMS) was used to determine TRA in urine, feces, whole blood, and plasma samples. […] At the testing facility (Accium BioSciences, Seattle, WA, USA), samples were assigned a unique tracking number, labeled, and stored at −70 °C until further analysis. Samples were subsequently removed from storage, thawed at room temperature, and thoroughly mixed. A known aliquot of each specimen was transferred to a pre-baked quartz tube and a known amount of carbon carrier added. Samples were then dried using vacuum centrifugation and submitted for graphitization; a known amount of each specimen was combusted and then reduced to graphite for measurement of total ^14C in the sample [22]. The resulting iron-graphite mixture was pressed into individual cathodes and submitted for AMS measurement on a National Electrostatics 5.2.1.Corporation (NEC) 1.5SDH Compact AMS System (Middleton, WI) running data acquisition software developed by NEC. Total carbon measurements were performed on a Shimadzu V-Series Total 5.2.2.Organic Carbon Analyzer, which uses oxidative combustion combined with non-dispersive infrared detection for the determination of total carbon concentrations. […]

[3] = design: method as in PMID 28290121; conditions: population PK estimate; cited from earlier work
CYP3A4 = test system: CYP3A4; design: method as in earlier work; conditions: 10 μM, exceeding clinical concentrations; cited from earlier work
[4] = PK of ixazomib in plasma and urine (LC/MS/MS) after a single [14C]-ixazomib oral solution dose, phase I human ADME study Part A; type: in vivo; conditions: N = 5
Protocol: as §1, §2, §3
Plasma and urine concentrations of ixazomib were measured using a validated liquid chromatography/tandem mass spectrometry (LC/MS/MS) assay with a quantitation range of 0.5–500 ng/mL [16].
The plasma PK of ixazomib was characterized over the first 14 days post dose, while the urine PK and excretion of ixazomib was assessed over the first 7 days post dose. TRA in plasma, whole blood, urine, and feces was assessed over the 35-day post-dose period in Part A. Mass balance of radiolabeled ixazomib was characterized based on the sum of cumulative amounts excreted in feces and urine during the continuous collection interval up to 7 days post dose (day 8, 168 h), and the interpolated amounts excreted in feces and urine between the weekly intermittent collections up to 35 days post dose. For the intervals of time during which urine and feces were not collected, the interval recovery of TRA was estimated as the area under the excretion rate-time curve from the end of the preceding collection interval to the start of the subsequent collection interval. PK parameters were calculated by non-compartmental analysis methods (Phoenix WinNonlin version 6.2, Certara, Princeton, NJ, USA).

[5] = cited from earlier work
[6] = Safety and tolerability (treatment-emergent adverse events) of ixazomib in patients with advanced solid tumors; type: in vivo, human
Protocol: as §1, §2

CYP2D6 = test system: CYP2D6; design: method as in earlier work; conditions: 10 μM, exceeding clinical concentrations; cited from earlier work
CYP2C9 = test system: CYP2C9; design: method as in earlier work; conditions: 10 μM, exceeding clinical concentrations; cited from earlier work
relapsed/refractory MM = test system: relapsed/refractory MM; design: method as in PMID 27119237; conditions: cited from earlier work
[7] = design: method as in PMID 28800141; conditions: cited from earlier work
[8] = design: method as in PMID 28550039; conditions: 4 mg capsules, relapsed or refractory light-chain amyloidosis, cited from earlier work
CYP1A2 = test system: CYP1A2; design: method as in earlier work; conditions: 10 μM, exceeding clinical concentrations; cited from earlier work
CYP2C19 = test system: CYP2C19; design: method as in earlier work; conditions: 10 μM, exceeding clinical concentrations; cited from earlier work
[9] = test system: plasma proteins, primarily serum albumin; design: method as in PMID 27121262, PMID 27196567; conditions: cited from earlier work
[10] = cited from earlier work; remark: listed apart in the source
[11] = test system: cytochrome P450 (CYP) and non-CYP proteins; design: method as in earlier work; conditions: clinically relevant ixazomib concentrations; cited from earlier work
CYP2C8 = test system: CYP2C8; design: method as in earlier work; conditions: 10 μM, exceeding clinical concentrations; cited from earlier work
advanced solid tumors = assay: Disease status during the study (efficacy, not a formal endpoint); type: in vivo, human; conditions: for Time on study with long-term stable disease: single-agent ixazomib
Protocol: as §2

Structure (SMILES): CC(C)C[C@H](NC(=O)[C@H](Cc1ccccc1)NC(=O)c1cnccn1)B(O)O [bortezomib]
- Concentrations in whole blood higher than those observed in plasma [1]: 3 fold

Structure (SMILES): CC(C)C[C@H](NC(=O)CNC(=O)c1cc(Cl)ccc1Cl)B(O)O [ixazomib]
- Estimated relative contribution of 2B6 to metabolism (CYP2B6): 16%
- Cumulative TRA recovered in feces (days 1–35, %) of administered dose ([2]; Mean (SD), N = 5): 21.8% and 21.8 (3.41) %
- Cumulative TRA recovered in urine (days 1–35, %) of administered dose ([2]; Mean (SD), N = 5): 62.1% and 62.1 (21.2) %
- Total recovery (%) of TRA in urine and feces ([2]; Mean (SD), N = 5): 83.9 (20.7) %
- Cumulative TRA recovered in feces (days 1–35, %) of administered dose ([2]; Patient 001): 18.3%
- Cumulative TRA recovered in urine (days 1–35, %) of administered dose ([2]; Patient 001): 40.8%
- Total recovery (%) of TRA in urine and feces ([2]; Patient 001): 59.1%
- Cumulative TRA recovered in feces (days 1–35, %) of administered dose ([2]; Patient 002): 18.7%
- Cumulative TRA recovered in urine (days 1–35, %) of administered dose ([2]; Patient 002): 96.0%
- Total recovery (%) of TRA in urine and feces ([2]; Patient 002): 115%
- Cumulative TRA recovered in feces (days 1–35, %) of administered dose ([2]; Patient 005): 26.4%
- Cumulative TRA recovered in urine (days 1–35, %) of administered dose ([2]; Patient 005): 58.5%
- Total recovery (%) of TRA in urine and feces ([2]; Patient 005): 84.9%
- Cumulative TRA recovered in feces (days 1–35, %) of administered dose ([2]; Patient 006): 23.7%
- Cumulative TRA recovered in urine (days 1–35, %) of administered dose ([2]; Patient 006): 49.3%
- Total recovery (%) of TRA in urine and feces ([2]; Patient 006): 73.0%
- Cumulative TRA recovered in feces (days 1–35, %) of administered dose ([2]; Patient 007): 21.9%
- Cumulative TRA recovered in urine (days 1–35, %) of administered dose ([2]; Patient 007): 65.7%
- Total recovery (%) of TRA in urine and feces ([2]; Patient 007): 87.6%
- Daily increment in excretion of TRA ([2]; after day 28): < 1%
- Mean cumulative excretion of TRA in urine and feces ([2]; by day 14 post dose): 59.0%
- Mean total recovery of TRA in urine and feces ([2]; day 28 (plateau of excretion rate)): 79.4%
- Orally administered dose absorbed into the systemic circulation, suggested by urinary recovery ([2]; inferred from urinary TRA recovery): at least 62%
- Absolute oral bioavailability [3]: 58%
- Steady-state volume of distribution [3]: 543 L
- Systemic clearance [3]: 1.86 L/h
- Terminal disposition phase half-life (t1/2) [3]: 228 h
- Estimated relative contribution of 3A4 to metabolism (CYP3A4): 42%
- AUC(0-t) ([4]; human, plasma, po, 4.1 mg, plasma, single 4.1 mg oral solution dose of [14C]-ixazomib, read-out: Geometric mean AUC0–168, ng*h/mL (%CV), ixazomib): 847 ng·h/mL
- AUC(0-t) ([4]; human, plasma, po, 4.1 mg, plasma, single 4.1 mg oral solution dose of [14C]-ixazomib, read-out: Geometric mean AUC0–312, ng*h/mL (%CV), ixazomib): 1180 ng·h/mL
- dose excreted ([4]; human, urine, po, 4.1 mg, up to 168 h post dose, single 4.1 mg oral solution dose, read-out: Mean urinary recovery, % (SD): administered dose recovered in urine as unchanged drug): < 3.5%
- Cmax ([4]; human, plasma, single 4.1 mg oral solution dose of [14C]-ixazomib, read-out: Geometric mean Cmax, ng/mL (%CV), ixazomib): 89.1 ng/mL
- CL renal ([4]; human, urine, single 4.1 mg oral solution dose of [14C]-ixazomib, read-out: Geometric mean CLR (renal clearance), L/h (%CV) (converted)): 0.119 L/h
- Mean urinary recovery, % (SD): administered dose recovered in urine as unchanged drug ([4]; up to 168 h post dose, single 4.1 mg oral solution dose): 3.23 (2.13) %
- Median time to first maximum observed concentration (Tmax) ([5]; after oral administration): approximately 1 h
- Effect of a high-fat meal on ixazomib absorption [5]: decreases both the rate and extent of ixazomib absorption
- Geometric mean t1/2 [5]: 228 h
- Abdominal pain incidence ([6]; human, in vivo): 43%
- Constipation incidence ([6]; human, in vivo): 29%
- Decreased appetite incidence ([6]; human, in vivo): 43%
- Diarrhea incidence ([6]; human, in vivo): 71%
- Dry mouth incidence ([6]; human, in vivo): 14%
- Headache incidence ([6]; human, in vivo): 43%
- Nausea incidence ([6]; human, in vivo): 29%
- Patients experiencing a grade 3 AE (influenza and platelet count decreased) ([6]; human, in vivo): two patients
- Patients with a drug-related event ([6]; human, in vivo): 86%
- Premature discontinuation or dose reduction due to an adverse event ([6]; human, in vivo): No patients
- Serious adverse event (influenza, deemed unrelated to study drug) ([6]; human, in vivo): One patient
- TEAEs affecting the gastrointestinal system ([6]; human, in vivo): all patients experiencing an event
- Vomiting incidence ([6]; human, in vivo): 29%
- Deaths on study ([6]; safety population N = 7): no patients died while on study
- Estimated relative contribution of 2D6 to metabolism (CYP2D6): 5%
- Estimated relative contribution of 2C9 to metabolism (CYP2C9): < 1%
- Median progression-free survival (relapsed/refractory MM; ixazomib (4 mg starting dose) added to lenalidomide and dexamethasone, RRMM patients, versus 14.7 months with placebo): 20.6 months
- Progression-free survival hazard ratio (relapsed/refractory MM; ixazomib plus lenalidomide and dexamethasone versus placebo plus lenalidomide and dexamethasone, p = 0.012): 0.74
- Reduction of plasma exposures (AUC) of ixazomib ([7]; co-administration of rifampin): 74%
- Effect of strong CYP3A inhibitors on ixazomib PK ([7]; ketoconazole and clarithromycin): no significant effect
- Whole blood to plasma AUC0–168 ratio for ixazomib alone ([8]; day 1): 12.7
- Whole blood to plasma AUC0–168 ratio for ixazomib alone ([8]; day 15): 9.86
- Estimated relative contribution of 1A2 to metabolism (CYP1A2): 26%
- Estimated relative contribution of 2C19 to metabolism (CYP2C19): 5%
- Bound to plasma proteins [9]: 99%
- Higher total systemic exposure of ixazomib ([10]; moderate and severe hepatic impairment): 20%
- Effect of mild hepatic impairment (total bilirubin ≤1.5 x ULN) on ixazomib PK ([10]; population PK analyses): no clinically meaningful effect
- Effect of mild renal impairment (CrCl ≥30 mL/min) on ixazomib PK ([10]; population PK analyses): no clinically meaningful effect
- Higher total systemic exposure of ixazomib compared with normal renal function ([10]; severe renal impairment and end-stage renal disease): 39%
- Plasma exposures versus patients with normal organ function ([10]; severe renal impairment, end-stage renal disease requiring dialysis, moderate or severe hepatic impairment, dedicated phase I studies): increased
- Metabolic pathways in vitro [11]: metabolized by multiple cytochrome P450 (CYP) and non-CYP proteins with CYP450 enzymes playing only a minor role
- Estimated relative contribution of 2C8 to metabolism (CYP2C8): 6%
- Patients who developed progressive disease during the study period (advanced solid tumors; 7 patients enrolled): 5 patients
- Time on study with long-term stable disease (advanced solid tumors; patient with cholangiocarcinoma): 162 days
- Time on study with long-term stable disease (advanced solid tumors; patient with ovarian cancer): 427 days
